Where two headings read alike, the source gives them in different places.
Legend:
[1] = Reductive stability (DTT), UPLC-MS after incubation in buffer; format: physicochemical; details: 10 µM, 0.5 mM DTT, 10 mM MgCl2, pH 7.4, 2 h at 30 °C
Procedure: (§1) Lastly, the chemical stability of the photoswitches was evaluated in the kinase assay buffer. To avoid the oxidation of the kinase substrate peptide, the buffer contains dithiothreitol (DTT) as a reducing agent. Therefore, we presumed that performing multiple switching cycles in this buffer would allow us to gain insight into both the photochemical- and chemical stability of the three photoswitches. […] We hypothesise that the instability of DK398 in the assay buffer was caused due to either poor solubility or interactions with buffer components, such as the BSA protein.
Reductive stability (DTT)
Figure S8. UV-traces (λ = 312 nm) of UPLC-MS measurements after incubation of DK518, DK398 and
DK557 in buffer (10 µM, 0.5 mM DTT, 10 mM MgCl2, pH 7.4) for 2h at 30 °C. Traces show the presence of […]

[2] = Reversible switching cycles in kinase assay buffer containing DTT ((photo)chemical stability); format: physicochemical; details: kinase assay buffer with 0.5 mM DTT, 365 nm / 445 nm irradiation
Procedure: as §1
Photochemical evaluation. UV-Vis absorption spectra were recorded on an Agilent 8453 UV-Visible spectrophotometer equipped with an irradiation set-up containing a 365 and 445 nm LED. Stock solutions of DK398, DK518, and DK557 were prepared in DMSO (2.0 mM) and were diluted 100-fold in kinase assay buffer (40 mM Tris-HCl, 10 mM MgCl2, 0.5 mM DTT, 0.1 mg/mL BSA, pH 7.4, final 1% DMSO) or DMSO for spectroscopic characterisation. Reversible switching cycles were performed in a kinase assay buffer to evaluate the (photo)chemical stability. All three compounds were irradiated using UV light (λmax = 365 nm) to perform trans-to-cis isomerisation and blue light (λmax = 445 nm) for the back-reaction. The irradiation time was adjusted to the compound until the corresponding PSS was achieved.
Figure 2 (a) Structures and irradiation-dependent interconversion of the trans and cis isomers of DK398, DK518, and DK557; (b) UV-Vis absorption spectra of DK398, DK518, and DK557 in kinase assay buffer (10–20 µM, 4.8% DMSO) in the thermally adapted (all trans) and irradiated forms; (c) isomer distribution in the photostationary state (pie charts). The pink region represents the percentage of cis-isomer in the PSD as determined by ^1H-NMR (DMSO-d6). […]

CK1δ [3] = target: T1, CK1δ (Homo sapiens, UniProt P48730); assay: In vitro kinase assay (ATP consumption, Kinase Glo), 'dark' and UV-irradiated 'light' samples; format: biochemical; details: for degree of CK1δ inhibition reached in dose-response curve: 'light' and/or 'dark' samples; for difference in activity (potency) between 'light' and 'dark' states: irradiated (365 nm) vs thermally adapted sample, 'light' more potent
Procedure: After evaluating the photochemical properties of the three photoswitches DK398, DK518, and DK557 in detail, an in vitro kinase activity assay was performed. In this assay, the inhibitory activity towards CK1δ of both dark (all-trans) and irradiated (cis-enriched) samples was evaluated to construct dose–response curves for both states. During the enzymatic reaction (2 h), samples were either kept in the dark or irradiated with UV light (λmax = 365 nm). UV light irradiation itself was confirmed to have no effect on CK1δ activity (Figure S9). After the enzymatic reaction, ATP consumption was measured to determine enzyme activity. The ATP consumption of the samples containing the photoswitchable inhibitors was compared to the ATP consumption of a DMSO control to assess the degree of enzyme inhibition.
In vitro kinase assay. Stock solutions (2.0 mM) of the photoswitchable LH846 inhibitors were prepared in DMSO and thermally adapted by heating to c.a. 100 °C for 1 min. Dilutions were made in DMSO to reach 21-fold concentrated solutions of the desired concentrations to be tested in the assay. The assays were performed on white, solid-bottom 384-well plates and electronic, hand-held Gilson pipettes were used. The total volume for the reaction was 10.5 µL. All solutions were applied to the well plate in a dark room to prevent ambient-light-induced photo-isomerisation. Firstly, a solution of CK1δ and substrate peptide RKKKAEpSVASLTSQCSYSS (Anaspec Fermont, CA, USA, custom made) in a kinase assay buffer was aliquoted into the bottom of the wells (9 µL). Next, the 21-fold concentrated solutions of the compound (0.5 μL, final 4.8% DMSO) was pipetted into the bottom of the wells. Lastly, a solution of ATP in water (50 µM, 1 μL) was pipetted into the upper corners of each well (final concentration 4.8 µM). Final concentrations of CK1δ and the substrate peptide were 2 ng/µL and 50 µM, respectively. The enzymatic reaction was started by spinning down the plate (1800× g, 2 min). By employing this method, all reactions were started at the same time, minimising variance between different samples. During the assay, ‘light’ samples were irradiated with UV light (λ = 365 nm, UV lamp Spectroline, ENB-280/FE, 1 × 8 Watt) for the full duration of the assay (2 h). The wells of ‘dark’ samples were carefully covered with an aluminium sticker. After the incubation period (2 h at 30 °C), 10 μL Kinase Glo® (Promega, Madison, WI, USA) was applied into the wells and the luminescent signal was recorded by a plate reader (BioTek Synergy H1). All measurements were carried out in triplicate. Enzyme activity was determined by comparing the ATP consumption of the samples containing the LH846-analogues to that of a DMSO control, set as 100% enzyme activity.

CK1δ [4] = target: T1, CK1δ; design: method as in PMID 21954091; details: parent inhibitor; read-out: IC50 of LH846 towards CK1δ; cited from earlier work
[5] = 'dark' (all-trans, thermally adapted) samples, 2 h at 30 °C, 4.8 µM ATP, read-out: 50 % inhibition: dark (absolute IC50)
[6] = 'light' (cis-enriched) samples irradiated with UV light 365 nm for the full 2 h, 30 °C, 4.8 µM ATP, read-out: 50 % inhibition: light (absolute IC50)

T1 sequence (P48730 whole entry): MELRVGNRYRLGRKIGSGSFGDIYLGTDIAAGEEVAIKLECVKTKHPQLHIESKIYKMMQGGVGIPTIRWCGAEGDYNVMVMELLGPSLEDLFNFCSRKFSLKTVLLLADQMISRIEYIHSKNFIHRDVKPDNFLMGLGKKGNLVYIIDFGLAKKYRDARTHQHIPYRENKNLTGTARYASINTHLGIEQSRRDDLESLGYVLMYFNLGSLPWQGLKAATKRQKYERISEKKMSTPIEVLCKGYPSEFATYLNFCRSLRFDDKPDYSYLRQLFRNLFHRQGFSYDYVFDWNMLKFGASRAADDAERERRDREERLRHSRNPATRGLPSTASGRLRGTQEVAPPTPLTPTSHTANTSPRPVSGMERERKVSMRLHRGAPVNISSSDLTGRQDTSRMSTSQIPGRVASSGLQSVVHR

| SMILES | stability against reduction by DTT [1] | stability over multiple switching cycles [2] | IC50 (CK1δ [3]; [5]) [nM] | IC50 (CK1δ [3]; [6]) [nM] | degree of CK1δ inhibition reached in dose-response curve (CK1δ [3]) | difference in activity (potency) between 'light' and 'dark' states (CK1δ [3]) | IC50 (CK1δ [3]; both 'light' and 'dark' samples, read-out: IC50 values towards CK1δ) [nM] | IC50 (CK1δ [4]) [nM] |
| --- | --- | --- | --- | --- | --- | --- | --- | --- |
| Cc1cc2sc(NC(=O)Cc3ccc(/N=N/c4ccccc4)cc3)nc2cc1Cl [DK398] | No reduction products (hydrazine or aniline) were observed | poor stability | > 10000 | ~1000 | incomplete inhibition | ~10 fold | – | – |
| Cc1cc2sc(NC(=O)Cc3cccc(/N=N/c4ccccc4)c3)nc2cc1Cl [DK518] | No reduction products (hydrazine or aniline) were observed | excellent stability | 340 | 350 | achieved complete enzyme inhibition | completely abolished the difference in activity | ~350 | – |
| Cc1cc2sc(NC(=O)Cn3nc(C)c(/N=N/c4ccccc4)c3C)nc2cc1Cl [DK557] | No reduction products (hydrazine or aniline) were observed | excellent stability | 11600 | 1200 | complete enzyme inhibition upon irradiation | ~10 fold | – | – |
| Cc1cc2sc(NC(=O)Cc3ccccc3)nc2cc1Cl [LH846] | – | – | – | – | – | – | – | 290 |
